Several values for one entry are separate records, joined by “and”; a condition that tells them apart may be missing. Equal entries are not always repeated.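 Method: 48-hour compound exposure of cells in 96-well plates, five concentrations, linear interpolation of endpoints. GI50 is the concentration that inhibits growth by half. TGI: concentration producing complete growth inhibition.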

Some test systems named below: NCI-H23 lung; HCC-2998 colon; M14 melanoma; MOLT-4 leukemia; COLO 205 colon; NCI/ADR-RES ovarian; IGROV1 ovarian; OVCAR-3 ovarian; SK-MEL-5 melanoma; U251 CNS.
Common to all, as to experiment: NCI anticancer screen, dose series, 48 h

As for `C=CC(=O)N1CN(C(=O)C=C)CN(C(=O)C=C)C1`, the GI50 was 2.77 µM in the experiment on NCI-H23 lung; 10.2 µM in the experiment with HCC-2998 colon; 2.85 µM with M14 melanoma; 2.71 µM in the experiment on MOLT-4 leukemia; 1.7 µM in the experiment with COLO 205 colon; 6.81 µM in the experiment with NCI/ADR-RES ovarian. For the same molecule, the GI50 is 3.34 µM in the experiment on IGROV1 ovarian, 2.57 µM in the experiment on OVCAR-3 ovarian, 9.61 µM in the experiment with SK-MEL-5 melanoma and 4.34 µM with U251 CNS. Also, the TGI was 9.15 µM in the experiment on NCI-H23 lung; 25.3 µM in the experiment with HCC-2998 colon; 7.86 µM in the experiment on M14 melanoma; 8.05 µM in the experiment with MOLT-4 leukemia; 3.59 µM in the experiment with COLO 205 colon; over 100 µM with NCI/ADR-RES ovarian. In addition, the TGI in the experiment on IGROV1 ovarian is 11.3 µM; with OVCAR-3 ovarian, 7.99 µM; in the experiment on SK-MEL-5 melanoma, 24.7 µM; with U251 CNS it was 16.5 µM.
Consider `O=C1Nc2ccccc2/C1=C1\CCc2cc(O)ccc21`, for which the GI50 with NCI-H23 lung is 7.07 µM; in the experiment on HCC-2998 colon, 9.41 µM; with M14 melanoma, 7.18 µM; with MOLT-4 leukemia, 12.2 µM; in the experiment with COLO 205 colon it was 12.4 µM; in the experiment on NCI/ADR-RES ovarian, 7.65 µM. In addition, the GI50 with IGROV1 ovarian was 7.63 µM; with OVCAR-3 ovarian, 9.95 µM; in the experiment on SK-MEL-5 melanoma it was 6.62 µM; with U251 CNS it was 8.84 µM. Further, the TGI in the experiment on NCI-H23 lung, with HCC-2998 colon, with M14 melanoma, with MOLT-4 leukemia, with COLO 205 colon and in the experiment on NCI/ADR-RES ovarian was over 25 µM each time. Further, the TGI in the experiment on IGROV1 ovarian, in the experiment with OVCAR-3 ovarian, with SK-MEL-5 melanoma and with U251 CNS was over 25 µM each time.
On to `COc1ccc(-c2ccc3c(N4CCOC[C@@H]4C)nc(N4CCOC[C@@H]4C)nc3n2)cc1CO`, for which the GI50 with NCI-H23 lung was 0.00731 µM and 0.0394 µM; in the experiment with HCC-2998 colon it was 0.0094 µM and 0.0254 µM; with M14 melanoma, 0.00517 µM and 0.0262 µM; in the experiment on MOLT-4 leukemia, 0.00584 µM and 0.0488 µM; in the experiment with COLO 205 colon it was 0.00502 µM and 0.0474 µM; in the experiment with NCI/ADR-RES ovarian it was 0.013 µM and 0.0584 µM. Besides, the GI50 was 0.00654 µM and < 0.01 µM in the experiment on IGROV1 ovarian; 0.00504 µM and 0.0334 µM in the experiment with OVCAR-3 ovarian; 0.00471 µM and 0.0264 µM in the experiment on SK-MEL-5 melanoma; 0.00762 µM and 0.0341 µM in the experiment on U251 CNS. In addition, the TGI with NCI-H23 lung was over 100 µM; in the experiment with HCC-2998 colon it was 3.21 µM; with M14 melanoma it was 20.5 µM; in the experiment with MOLT-4 leukemia, > 6.64 µM and 37.1 µM; in the experiment on IGROV1 ovarian it was 0.0744 µM and 0.0607 µM; in the experiment with OVCAR-3 ovarian, over 34.6 µM. In the experiment on U251 CNS, this molecule returned a TGI of over 54.1 µM.
As to `c1ccc2c(c1)[nH]c1c2cc[n+]2cc3c(cc12)CCCC3`, the TGI was 6.95 µM in the experiment with NCI-H23 lung; 7.71 µM and 4.66 µM in the experiment with HCC-2998 colon; 14 µM and 7.29 µM in the experiment with M14 melanoma; 13.7 µM and 3.73 µM with MOLT-4 leukemia; 5.45 µM and 3.56 µM in the experiment with COLO 205 colon; over 100 µM in the experiment with NCI/ADR-RES ovarian. Besides, the TGI in the experiment on IGROV1 ovarian is 25 µM and 25.5 µM; in the experiment on SK-MEL-5 melanoma, 3.22 µM and 5.83 µM; in the experiment on U251 CNS it was 9.77 µM and 12.1 µM. The GI50 with HCC-2998 colon was 2.67 µM; in the experiment with M14 melanoma, 3.01 µM; in the experiment with MOLT-4 leukemia, 3.74 µM; with COLO 205 colon, 1.9 µM; in the experiment on NCI/ADR-RES ovarian, 93.8 µM; in the experiment on IGROV1 ovarian, 5.59 µM. In addition, the GI50 in the experiment with OVCAR-3 ovarian is 2.91 µM; with SK-MEL-5 melanoma, 1.29 µM.
With `COc1ccc(-c2nccn2-c2ccc(OC)cc2)cc1`, the GI50 was 22.2 µM with NCI-H23 lung; 16.4 µM in the experiment with HCC-2998 colon; 20.5 µM in the experiment with M14 melanoma; 27.4 µM with MOLT-4 leukemia; 28.3 µM with COLO 205 colon; 20.5 µM in the experiment with NCI/ADR-RES ovarian. In addition, the GI50 in the experiment on IGROV1 ovarian was 25.2 µM; in the experiment on OVCAR-3 ovarian it was 21.6 µM; in the experiment on SK-MEL-5 melanoma, 14.2 µM; in the experiment with U251 CNS it was 26.3 µM. Besides, the TGI in the experiment on NCI-H23 lung is 58.9 µM; in the experiment on HCC-2998 colon, 33.7 µM; in the experiment with M14 melanoma it was 56.7 µM; in the experiment with MOLT-4 leukemia it was 89.4 µM; in the experiment on COLO 205 colon it was over 100 µM; with NCI/ADR-RES ovarian, 49.4 µM. Also, the TGI is over 82 µM in the experiment with IGROV1 ovarian, 62.6 µM in the experiment on OVCAR-3 ovarian, 30.4 µM in the experiment with SK-MEL-5 melanoma and over 72.9 µM in the experiment on U251 CNS.
For the molecule `CO[C@H]1Nc2c(ccc(C)c2O)C(=O)N2C=C(/C=C/C(N)=O)C[C@@H]12`, the TGI in the experiment with NCI-H23 lung came to 0.354 µM; in the experiment on HCC-2998 colon, 0.132 µM; with M14 melanoma, 0.0406 µM; with MOLT-4 leukemia, 6.29 µM; in the experiment with COLO 205 colon, 0.1 µM; in the experiment on NCI/ADR-RES ovarian, 0.085 µM. The TGI in the experiment with IGROV1 ovarian was determined as 7.33 µM; in the experiment with OVCAR-3 ovarian, 0.192 µM; with SK-MEL-5 melanoma it was 0.0308 µM; in the experiment on U251 CNS it was 10.8 µM.

The values above are taken from PubChem BioAssay (NCI).
